Assay results as given in patent US11478466B2, “Small molecule promoting osteoblast differentiation” (Cornell University, priority 2019, dated 2022).
Like-named read-outs stand apart in the source and are kept apart here.

Experiments:
[1] = system: alkaline phosphatase (ALP); details: for RFU Score (10 μM): 154-analog library, C2C12, duplicate; for RFU Score Threshold ≥ 800 / Fluorescence Z Score Threshold ≥ 10 / NPA Score Threshold ≥ 5.0 (normalized percent activation): primary screen, C2C12, 4 days; for RFU Score (10 μM) / RFU Score Threshold ≥ 800 / Fluorescence Z Score Threshold ≥ 10 / NPA Score Threshold ≥ 5.0 (normalized percent activation): 10 μM; for RFU Score Threshold ≥ 800: Ex 450/Em 580 nm, rank in brackets not taken; for Fluorescence Z Score Threshold ≥ 10: Z score on DMSO control wells; for NPA Score Threshold ≥ 5.0 (normalized percent activation): normalized against rhBMP4 positive and DMSO negative controls
Excerpt: (§1) To identify small-molecule activators of osteoblast differentiation, we measured ALP activity using a fluorescent emission assay as a reporter for enzymatic digestion of ALP substrate in lysates derived from C2C12 myoblasts. […] Therefore, before screening, the assay was calibrated using recombinant human BMP4 protein as a positive control. Compounds were robotically deposited onto 384-well plates and then overlaid by C2C12 cells for a 4-day culture period, followed by lysis and fluorescent substrate assays (FIG. 1A; Table 1). To ensure uniformity, C2C12 cells were maintained in normal culture medium containing 10% fetal bovine serum, and lysis and substrate addition achieved using a microplate multidrop device. The primary screen (Table 2) encompassed greater than 47,000 small molecules tested at a final concentration of 10 μM.
(§2) For the primary screen, library compounds were distributed onto 384-well microplates (Greiner Bio-One 781091) at a final concentration of 10 μM in culture medium using a Perkin Elmer Janus automated workstation and WinPrep Version 4.8.3.315. Positive (rhBMP4, 1 ng/ml, R&D Systems) and negative controls (DMSO, 0.2%) were manually added to each plate by multichannel pipet. C2C12 cells were seeded onto compounds and controls at a density of 2000/well using a Thermo Multidrop Combi reagent dispenser and cultured for 4 days at 37° C., 5% CO2. Culture medium was aspirated using a BioTek EL406 plate washer and cells were lysed in RIPA buffer (Millipore 20-188) at ambient temperature for 10 minutes. 10 μl fluorescent alkaline phosphatase substrate (AttoPhos, Promega S1000) was added to lysates and incubated an additional 10 minutes before measuring the fluorescence (Excitation 450 nm/Emission 580 nm) on a BioTek Synergy Neo2 stacking microplate reader. Plates were processed and relative fluorescence raw values measured in stacks of 10-20. The data were processed using Collaborative Drug Discovery web-based software (CDD Vault) to determine Z score calculated on DMSO control wells and percent activation normalized against positive and negative controls (NPA). Cherry-picked hit candidates were re-tested in concentration response experiments, from which 4 candidates were chosen and purchased for further testing from either ChemBridge or Enamine, based on availability.
(§3) We also purchased a library of 154 structural chemical analogs assembled by ChemBridge Corp. from available screening library compounds.

[2] = system: alkaline phosphatase (ALP); test: cells; details: Mus musculus; for activation at 10 µM: C2C12, 96 h
Excerpt: as §1, §2, §3

[3] = read-out: NPA Score Threshold ≥ 5.0 (normalized percent activation)

Row | Compound | RFU Score (10 μM) [1] | activation at 10 µM [2] | further results
1 | c1ccc(-c2nc[nH]c2-c2cccc(CN3CCOCC3)c2)cc1 [RU-0232369] | 294 | 0.43% | –
2 | O=C(c1[nH]cnc1-c1ccccc1)N1CCCC(Nc2ccc(F)cc2)C1 (stereo not drawn) [RU-0236307] | 473 | 6.76% | –
3 | Cc1cc(C)n(CC(C)Nc2nc(-c3ccncc3)nc3c2CNC3)n1 (stereo not drawn) [RU-0236897] | – | – | RFU Score Threshold ≥ 800 [1]: Below Threshold; Fluorescence Z Score Threshold ≥ 10 [1]: Below Threshold; activation at 10 µM [2, 3]: 5.32%
4 | CCc1ncc2c(n1)CN(C(=O)c1[nH]cnc1-c1ccccc1)C2 [RU-0237095] | 453 | 6.04% | –
5 | COc1ccc(-c2n[nH]cc2-c2[nH]cnc2-c2ccccc2)cc1 [RU-0237450] | 466 | 6.49% | –
6 | CCc1cnc(C)nc1N1CCCC(Cc2cccnc2)C1 (stereo not drawn) [RU-0238003, 5-ethyl-2-methyl-4-[3-(pyridin-3-ylmethyl)piperidin-1-yl]pyrimidine] | – | – | RFU Score Threshold ≥ 800 [1]: 1340 (3); Fluorescence Z Score Threshold ≥ 10 [1]: 36.44 (3); NPA Score Threshold ≥ 5.0 (normalized percent activation) [1]: Below Threshold; EC50 ([2]; C2C12, read-out: Measured EC50): > 40 µM
7 | Cc1ccc(-n2cc(CN3CCCC(Cn4ccnc4C)C3)cn2)cc1C (stereo not drawn) [RU-0238394] | – | – | RFU Score Threshold ≥ 800 [1]: 914 (15); Fluorescence Z Score Threshold ≥ 10 [1]: 12.45 (19); activation at 10 µM [2, 3]: 5.54%
8 | Cc1cc(C)c2[nH]c(=O)c(CN3CCN4CCN(C)CC4C3)cc2c1 (stereo not drawn) [RU-0238998] | 469 | 6.62% | –
9 | COc1cc(OC)c(-c2[nH]cnc2-c2ccccc2)c(OC)c1 [RU-0239439] | 472 | 6.72% | –
10 | Cc1nc2cc(-c3cccc4ccnn34)ccc2s1 [RU-0239646] | – | – | RFU Score Threshold ≥ 800 [1]: Below Threshold; Fluorescence Z Score Threshold ≥ 10 [1]: Below Threshold; activation at 10 µM [2, 3]: 5.22%
11 | CCCC(C)c1nnc(NC(=O)c2ccccc2-n2cncn2)s1 (stereo not drawn) [RU-0242581] | – | – | RFU Score Threshold ≥ 800 [1]: 849 (24); Fluorescence Z Score Threshold ≥ 10 [1]: Below Threshold; activation at 10 µM [2, 3]: 5.51%
12 | CN(C)CCNc1cc(-c2ccc(Cl)cc2F)c2cc[nH]c2n1 [RU-0242925] | – | – | RFU Score Threshold ≥ 800 [1]: Below Threshold; Fluorescence Z Score Threshold ≥ 10 [1]: Below Threshold; activation at 10 µM [2, 3]: 5.73%
13 | Cc1nc2cc(C(=O)N3CCNC(=O)C3)ccc2s1 [RU-0243566] | – | – | RFU Score Threshold ≥ 800 [1]: Below Threshold; Fluorescence Z Score Threshold ≥ 10 [1]: Below Threshold; activation at 10 µM [2, 3]: 5.55%
14 | CN1CC2(CCCN(C(=O)c3[nH]cnc3-c3ccccc3)CC2)OC1=O (stereo not drawn) [RU-0245926] | 558 | 9.73% | –
15 | COc1cccc(-c2[nH]cnc2-c2ccccc2)c1OCCN(C)C [RU-0247047] | 558 | 9.73% | –
16 | C=CCc1cc(-c2[nH]cnc2-c2ccccc2)cc(OC)c1O [RU-0248392] | 423 | 4.98% | –
17 | CN(C)CC1(O)CCN(C(=O)c2[nH]cnc2-c2ccccc2)C1 (stereo not drawn) [RU-0248829] | 325 | 1.52% | –
18 | c1ccc(-c2nc[nH]c2-c2ccccc2OCCCN2CCOCC2)cc1 [RU-0248967] | 512 | 7.58% | –
19 | CN1CCC(Cc2noc(-c3[nH]cnc3-c3ccccc3)n2)CC1 [RU-0249023] | 293 | 0.4% | –
20 | c1ccc(-c2nc[nH]c2-c2ccc(OCCn3ccnc3)cc2)cc1 [RU-0249817] | 561 | 9.84% | –

Row | Compound | RFU Score (10 μM) [1] | activation at 10 µM [2] | further results
21 | O=C(CCc1n[nH]c2c1CCCC2)N1CCC2(CCCO2)CC1 [RU-0250369] | – | – | RFU Score Threshold ≥ 800 [1]: Below Threshold; Fluorescence Z Score Threshold ≥ 10 [1]: Below Threshold; activation at 10 µM [2, 3]: 5.46%
22 | O=C(NC1CC(=O)N(CCc2ccccc2)C1)c1[nH]cnc1-c1ccccc1 (stereo not drawn) [RU-0252250] | 533 | 8.85% | –
23 | CN1CC2(CCN(C(=O)c3[nH]cnc3-c3ccccc3)C2)OC1=O (stereo not drawn) [RU-0253075] | 500 | 7.71% | –
24 | Cc1cc(C)c2[nH]c(=O)c(-c3nccn3CCc3cn[nH]c3)cc2c1 [RU-0253216] | 341 | 2.09% | –
25 | CCN1CCN(CCOc2ccccc2-c2[nH]cnc2-c2ccccc2)CC1 [RU-0253941] | 547 | 9.34% | –
26 | c1cc2c(cc1NC1CCCNC1)OCCO2 (stereo not drawn) [RU-0256394] | – | – | RFU Score Threshold ≥ 800 [1]: Below Threshold; Fluorescence Z Score Threshold ≥ 10 [1]: Below Threshold; activation at 10 µM [2, 3]: 5.87%
27 | Cc1cc(C)c2[nH]c(=O)c(CN(C)Cc3c(C)noc3C)cc2c1 [RU-0259020] | 514 | 8.18% | –
28 | CN(C)CC1(O)CCCN(S(=O)(=O)c2ccc(-c3ccccc3)cc2)CC1 (stereo not drawn) [RU-0259574] | – | – | RFU Score Threshold ≥ 800 [1]: 903 (16); Fluorescence Z Score Threshold ≥ 10 [1]: Below Threshold; activation at 10 µM [2, 3]: 9.87%
29 | CC(=O)Nc1ccc2nc(-c3[nH]cnc3-c3ccccc3)ccc2c1 [RU-0260066] | 456 | 6.14% | –
30 | O=C(c1[nH]cnc1-c1ccccc1)N1CCOC(c2ccc(Cl)cc2)C1 (stereo not drawn) [RU-0261164] | 544 | 9.24% | –
31 | c1ccc2c(N3CCN(Cc4cc5n(n4)CCCNC5)CC3)nsc2c1 [RU-0261349] | – | – | RFU Score Threshold ≥ 800 [1]: 884 (18); Fluorescence Z Score Threshold ≥ 10 [1]: 11.32 (22); activation at 10 µM [2, 3]: 5.04%
32 | CCC(c1cccnc1)N(C)Cc1cc2cc(C)cc(C)c2[nH]c1=O (stereo not drawn) [RU-0261450] | 538 | 9.03% | –
33 | O=C(N[C@H]1CC[C@H](n2cnnc2)CC1)c1[nH]cnc1-c1ccccc1 [RU-0261757] | 508 | 7.99% | –
34 | COc1ccc(-c2[nH]nnc2-c2ccccc2)cc1Cn1cncn1 [RU-0262240] | 496 | 7.55% | –
35 | CN1CCC(Cc2noc(CCC(=O)c3ccccc3)n2)CC1 [RU-0262489] | – | – | RFU Score Threshold ≥ 800 [1]: Below Threshold; Fluorescence Z Score Threshold ≥ 10 [1]: Below Threshold; activation at 10 µM [2, 3]: 5.43%
36 | O=C1NCC2(CCCN(C(=O)c3[nH]cnc3-c3ccccc3)C2)O1 (stereo not drawn) [RU-0264094] | 583 | 10.6% | –
37 | COc1cccc(-c2[nH]cnc2-c2ccccc2)c1OCCn1ccnc1 [RU-0265092] | 478 | 6.93% | –
38 | Cc1cc(C)c2[nH]c(=O)c(-c3c(-c4ccccc4)ncn3C3CCNC3)cc2c1 (stereo not drawn) [RU-0266582] | – | – | Fluo. Z Score ([1]; SAR of library and proprietary analogs, AttoPhos assay, C2C12): 0.48 ± 1.10; EC50 ([2]; C2C12): 1.42 µM
39 | Cc1cc(C)c2[nH]c(=O)c(CN3CCOC4(CNCCOC4)C3)cc2c1 (stereo not drawn) [RU-0267267] | 557 | 9.71% | –
40 | C=CCN(Cc1ccc(F)cc1)C(=O)c1c[nH]c2c(C)cccc2c1=O [RU-0268068] | – | – | RFU Score Threshold ≥ 800 [1]: Below Threshold; Fluorescence Z Score Threshold ≥ 10 [1]: Below Threshold; activation at 10 µM [2, 3]: 5.81%

Row | Compound | RFU Score (10 μM) [1] | activation at 10 µM [2] | further results
41 | O=C(c1[nH]cnc1-c1ccccc1)N1C[C@H](O)[C@@H](N2CCOCC2)C1 [RU-0268325] | 339 | 2.04% | –
42 | CCOC(=O)N1CCC(Nc2ncnc3ccsc23)CC1 [RU-0269711, ethyl 4-(thieno[2,3-e]pyrimidin-4-ylamino)piperidine-1-carboxylate] | – | – | RFU Score Threshold ≥ 800 [1]: 1070 (7); Fluorescence Z Score Threshold ≥ 10 [1]: 14.73 (15); NPA Score Threshold ≥ 5.0 (normalized percent activation) [1]: Below Threshold; EC50 ([2]; C2C12, read-out: Measured EC50): 28.3 µM
43 | CN(C)CC1(O)CCCN(C(=O)c2[nH]cnc2-c2ccccc2)C1 (stereo not drawn) [RU-0424441] | 368 | 3.04% | –
44 | CN1CCN(C(=O)c2[nH]cnc2-c2ccccc2)CC1C(=O)O (stereo not drawn) [RU-0424442] | 287 | 0.18% | –
45 | CCOc1cccc(-c2[nH]cnc2-c2ccccc2)c1OCC(=O)O [RU-0424443] | 306 | 0.87% | –
46 | Cc1cc(C)c2[nH]c(=O)c(CN(C)CCc3scnc3C)cc2c1 [RU-0424444] | 446 | 5.79% | –
47 | Cc1ccc2[nH]c(C(=O)O)c(-c3[nH]cnc3-c3ccccc3)c2c1 [RU-0424445] | 364 | 4.67% | –
48 | O=C(c1[nH]cnc1-c1ccccc1)N1CCc2onc(-c3ccccc3)c2C1 [RU-0424446] | 325 | 1.54% | –
49 | Cc1cc(C)c2[nH]c(=O)c(CN(C)Cc3nc(-c4cccnc4)no3)cc2c1 [RU-0424447] | 297 | 0.54% | –
50 | Cc1cc(C)c2[nH]c(=O)c(CN3C[C@@H](C)O[C@@H](C)C3)cc2c1 [RU-0424448] | 253 | -1% | –
51 | Cc1cc(C)c2[nH]c(=O)c(CN3CCC(c4nncn4C)CC3)cc2c1 [RU-0424449] | 284 | 0.1% | –
52 | Cc1nn(C)c(N2CCOCC2)c1-c1[nH]cnc1-c1ccccc1 [RU-0424450] | 288 | 0.24% | –
53 | Cc1cc(C)c2[nH]c(=O)c(CN(Cc3nccn3C)C3CC3)cc2c1 [RU-0424451] | 305 | 0.82% | –
54 | Cc1cc(C)c2[nH]c(=O)c(CN3CCC(CN)C3)cc2c1 (stereo not drawn) [RU-0424452] | 328 | 1.65% | –
55 | O=C(c1[nH]cnc1-c1ccccc1)N1CC(c2cccnc2)C1 [RU-0424453] | 323 | 1.46% | –
56 | O=C(c1[nH]cnc1-c1ccccc1)N1CCN2C(=O)OCC2C1 (stereo not drawn) [RU-0424454] | 333 | 1.83% | –
57 | O=C(c1[nH]cnc1-c1ccccc1)N1CCc2[nH]nc(-c3ccccc3)c2C1 [RU-0424455] | 347 | 2.3% | –
58 | Cc1cc(C)c2[nH]c(=O)c(CN3CCC(Oc4ncccn4)CC3)cc2c1 [RU-0424456] | 310 | 0.99% | –
